# Reference: ChEMBL document CHEMBL1201862, “PubChem BioAssay data set” (2004)
# Calls of active or inactive are those of the source.
# Assays:
# [1] = microbe, parasite or virus in culture; type: functional; settings: Mycobacterium tuberculosis
# Protein skinhead-1 = target: T1, Protein skinhead-1 (Caenorhabditis elegans, UniProt P34707); type: functional
# T1 sequence (P34707 whole entry): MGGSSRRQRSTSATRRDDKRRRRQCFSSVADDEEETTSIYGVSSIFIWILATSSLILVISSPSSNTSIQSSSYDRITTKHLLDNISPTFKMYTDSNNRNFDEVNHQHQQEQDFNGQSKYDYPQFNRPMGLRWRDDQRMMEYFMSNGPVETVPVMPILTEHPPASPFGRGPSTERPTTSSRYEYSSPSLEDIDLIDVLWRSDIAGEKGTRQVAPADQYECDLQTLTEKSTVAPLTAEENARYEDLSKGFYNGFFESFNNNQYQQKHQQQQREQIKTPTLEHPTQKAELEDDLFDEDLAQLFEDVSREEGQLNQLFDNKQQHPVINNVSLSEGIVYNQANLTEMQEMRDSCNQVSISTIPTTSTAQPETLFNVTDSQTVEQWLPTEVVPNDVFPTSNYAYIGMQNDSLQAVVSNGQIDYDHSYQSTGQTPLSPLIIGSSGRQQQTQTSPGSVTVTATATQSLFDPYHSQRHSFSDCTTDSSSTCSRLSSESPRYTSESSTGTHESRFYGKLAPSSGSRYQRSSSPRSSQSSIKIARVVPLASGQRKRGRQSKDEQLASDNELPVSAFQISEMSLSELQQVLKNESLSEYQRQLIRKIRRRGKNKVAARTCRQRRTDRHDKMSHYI
# [2] = target: T2, Corticotropin-releasing factor receptor 2/Corticotropin-releasing factor-binding protein (Homo sapiens, UniProt P24387+Q13324); assay: activators of CRF receptor 2 with binding protein – uHTS hits, confirmation (AID 602473); type: functional; settings: read-out: EC50_Mean
# T2 sequence (Q13324 whole entry): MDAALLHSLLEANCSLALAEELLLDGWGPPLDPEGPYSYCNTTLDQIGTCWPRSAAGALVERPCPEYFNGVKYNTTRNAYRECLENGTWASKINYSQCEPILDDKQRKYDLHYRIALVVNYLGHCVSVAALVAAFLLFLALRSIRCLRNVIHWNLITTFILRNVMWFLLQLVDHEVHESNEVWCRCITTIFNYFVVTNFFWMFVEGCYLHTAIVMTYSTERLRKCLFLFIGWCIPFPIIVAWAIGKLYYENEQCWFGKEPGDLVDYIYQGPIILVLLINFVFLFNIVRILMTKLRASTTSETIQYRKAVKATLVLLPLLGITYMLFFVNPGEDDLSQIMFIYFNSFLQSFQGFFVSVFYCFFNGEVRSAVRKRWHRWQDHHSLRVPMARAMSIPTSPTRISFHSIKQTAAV
# T2 sequence (P24387 whole entry): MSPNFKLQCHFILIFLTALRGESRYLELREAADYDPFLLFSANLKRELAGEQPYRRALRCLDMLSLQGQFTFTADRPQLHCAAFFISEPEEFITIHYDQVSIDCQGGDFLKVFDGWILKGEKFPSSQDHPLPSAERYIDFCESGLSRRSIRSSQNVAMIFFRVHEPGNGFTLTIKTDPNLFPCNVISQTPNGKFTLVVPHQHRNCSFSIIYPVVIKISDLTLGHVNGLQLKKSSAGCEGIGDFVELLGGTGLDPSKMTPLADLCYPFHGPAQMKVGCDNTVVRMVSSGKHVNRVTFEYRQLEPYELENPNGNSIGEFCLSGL
# [3] = target: T2, Corticotropin-releasing factor receptor 2/Corticotropin-releasing factor-binding protein; assay: Dose Response confirmation of uHTS hits for small molecule antagonists of the CRF-binding protein and CRF-R2 receptor complex.; type: functional; settings: read-out: IC50_Mean
# INS1 = assay: INS-1E survival protection against cytokine death – cell-based, luminescence, retest, dose response (AID 449756); type: functional; settings: Rattus norvegicus;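 further: cell death triggered by IL-1 beta plus TNF-alpha plus IFN-gamma mixture; protective hits raise ATP signal compared with cytokine alone wells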
# Fatty acid synthase [4] = target: T3, Fatty acid synthase (Homo sapiens, UniProt P49327); assay: inhibition of human FAS-TE enzyme activity – biochemical, endpoint fluorescence intensity, uHTS hits, dose response (AID 624327); type: functional;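 further: fluorescence from hydrolysis of an O-methyl fluorescein acyl ester substrate by the enzyme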
# T3 sequence (P49327 whole entry): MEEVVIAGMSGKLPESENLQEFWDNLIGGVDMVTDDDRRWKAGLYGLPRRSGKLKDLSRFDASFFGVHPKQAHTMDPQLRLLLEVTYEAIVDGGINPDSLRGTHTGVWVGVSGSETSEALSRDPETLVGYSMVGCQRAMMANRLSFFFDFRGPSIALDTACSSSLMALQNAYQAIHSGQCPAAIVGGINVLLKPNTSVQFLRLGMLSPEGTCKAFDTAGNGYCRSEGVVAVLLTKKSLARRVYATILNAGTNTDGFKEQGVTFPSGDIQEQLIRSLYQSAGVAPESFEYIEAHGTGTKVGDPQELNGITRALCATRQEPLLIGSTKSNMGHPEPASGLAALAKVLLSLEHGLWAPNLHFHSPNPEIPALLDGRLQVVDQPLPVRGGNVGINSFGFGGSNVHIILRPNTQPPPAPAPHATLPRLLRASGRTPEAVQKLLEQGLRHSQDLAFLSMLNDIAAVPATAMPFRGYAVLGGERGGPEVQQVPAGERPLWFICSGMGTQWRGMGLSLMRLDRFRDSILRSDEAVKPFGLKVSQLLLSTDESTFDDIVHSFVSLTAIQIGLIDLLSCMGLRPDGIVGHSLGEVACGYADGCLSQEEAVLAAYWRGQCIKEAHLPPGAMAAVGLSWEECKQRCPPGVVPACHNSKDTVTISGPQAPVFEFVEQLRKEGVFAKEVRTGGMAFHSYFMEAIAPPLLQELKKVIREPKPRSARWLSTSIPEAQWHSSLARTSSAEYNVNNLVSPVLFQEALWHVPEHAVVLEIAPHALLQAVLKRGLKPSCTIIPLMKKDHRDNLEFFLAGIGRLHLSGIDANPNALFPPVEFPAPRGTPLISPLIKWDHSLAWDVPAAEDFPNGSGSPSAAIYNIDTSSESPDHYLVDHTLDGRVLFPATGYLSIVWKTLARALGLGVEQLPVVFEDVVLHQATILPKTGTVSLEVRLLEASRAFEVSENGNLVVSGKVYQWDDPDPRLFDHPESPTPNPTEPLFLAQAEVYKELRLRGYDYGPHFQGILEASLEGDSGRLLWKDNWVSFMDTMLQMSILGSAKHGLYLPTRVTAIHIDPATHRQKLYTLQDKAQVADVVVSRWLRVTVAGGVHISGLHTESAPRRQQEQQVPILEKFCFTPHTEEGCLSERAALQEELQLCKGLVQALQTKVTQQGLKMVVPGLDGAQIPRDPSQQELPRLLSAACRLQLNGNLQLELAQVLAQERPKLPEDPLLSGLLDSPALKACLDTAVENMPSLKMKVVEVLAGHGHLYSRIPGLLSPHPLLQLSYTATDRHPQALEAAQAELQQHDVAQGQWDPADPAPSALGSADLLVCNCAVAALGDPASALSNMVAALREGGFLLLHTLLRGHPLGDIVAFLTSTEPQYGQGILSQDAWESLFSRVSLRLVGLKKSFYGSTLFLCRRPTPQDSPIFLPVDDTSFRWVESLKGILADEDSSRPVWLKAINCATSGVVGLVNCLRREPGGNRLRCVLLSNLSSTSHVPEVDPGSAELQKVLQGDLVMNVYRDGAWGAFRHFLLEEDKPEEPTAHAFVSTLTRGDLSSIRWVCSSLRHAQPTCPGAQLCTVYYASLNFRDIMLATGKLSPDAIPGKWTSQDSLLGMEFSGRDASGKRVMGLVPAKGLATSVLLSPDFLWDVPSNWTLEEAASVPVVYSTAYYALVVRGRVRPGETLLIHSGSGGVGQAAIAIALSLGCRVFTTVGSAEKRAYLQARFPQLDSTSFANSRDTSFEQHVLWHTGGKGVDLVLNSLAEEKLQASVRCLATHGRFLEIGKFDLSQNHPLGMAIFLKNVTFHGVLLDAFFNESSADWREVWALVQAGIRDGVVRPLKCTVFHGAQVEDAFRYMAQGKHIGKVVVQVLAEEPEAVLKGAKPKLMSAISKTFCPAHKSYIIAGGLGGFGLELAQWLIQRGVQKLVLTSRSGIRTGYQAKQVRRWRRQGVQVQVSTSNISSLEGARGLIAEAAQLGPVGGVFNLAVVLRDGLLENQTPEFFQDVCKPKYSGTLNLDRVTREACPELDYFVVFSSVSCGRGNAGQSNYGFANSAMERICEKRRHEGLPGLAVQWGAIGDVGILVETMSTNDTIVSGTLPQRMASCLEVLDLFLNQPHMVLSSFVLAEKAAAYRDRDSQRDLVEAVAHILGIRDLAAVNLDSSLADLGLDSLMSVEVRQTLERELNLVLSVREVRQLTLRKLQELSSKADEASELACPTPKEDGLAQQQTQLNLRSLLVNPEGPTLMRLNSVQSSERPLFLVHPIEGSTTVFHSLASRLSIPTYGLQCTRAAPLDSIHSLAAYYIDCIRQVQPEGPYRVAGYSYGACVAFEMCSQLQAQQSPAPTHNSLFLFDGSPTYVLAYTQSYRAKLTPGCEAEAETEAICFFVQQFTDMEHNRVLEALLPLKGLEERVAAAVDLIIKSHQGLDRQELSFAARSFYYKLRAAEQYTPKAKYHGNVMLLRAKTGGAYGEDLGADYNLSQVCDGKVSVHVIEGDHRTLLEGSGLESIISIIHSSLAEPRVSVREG
# Fatty acid synthase [5] = target: T3, Fatty acid synthase; assay: inhibition of human FAS-TE enzyme activity – biochemical, kinetic fluorescence intensity, dose response (AID 624326); type: functional;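 further: rate of fluorescence rise from hydrolysis of a fluorogenic O-methyl fluorescein ester substrate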
# [6] = target: T4, Calpain-2 catalytic subunit (Sus scrofa, UniProt P43367); assay: m-calpain protease blockers, concentration series – biochemical, fluorogenic peptide substrate, dose response (AID 1420); type: functional
# T4 sequence (P43367 whole entry): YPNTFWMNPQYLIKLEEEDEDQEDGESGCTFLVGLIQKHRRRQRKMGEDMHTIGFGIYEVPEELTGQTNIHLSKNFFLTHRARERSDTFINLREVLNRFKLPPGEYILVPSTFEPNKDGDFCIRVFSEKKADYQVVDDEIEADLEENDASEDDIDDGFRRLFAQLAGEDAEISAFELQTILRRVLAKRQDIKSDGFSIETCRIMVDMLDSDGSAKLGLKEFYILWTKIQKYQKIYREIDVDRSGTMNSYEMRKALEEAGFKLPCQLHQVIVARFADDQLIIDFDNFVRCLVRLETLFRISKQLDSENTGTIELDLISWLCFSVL
# [7] = target: T5, Polyadenylate-binding protein 1 (Homo sapiens, UniProt P11940); assay: MLLE domain peptide-binding blockers, IC50 – biochemical, fluorescence polarization, FITC-PAM2 peptide, dose response (AID 602259); type: functional; settings: read-out: IC50_Mean
# T5 sequence (P11940 whole entry, the tested form may be a part): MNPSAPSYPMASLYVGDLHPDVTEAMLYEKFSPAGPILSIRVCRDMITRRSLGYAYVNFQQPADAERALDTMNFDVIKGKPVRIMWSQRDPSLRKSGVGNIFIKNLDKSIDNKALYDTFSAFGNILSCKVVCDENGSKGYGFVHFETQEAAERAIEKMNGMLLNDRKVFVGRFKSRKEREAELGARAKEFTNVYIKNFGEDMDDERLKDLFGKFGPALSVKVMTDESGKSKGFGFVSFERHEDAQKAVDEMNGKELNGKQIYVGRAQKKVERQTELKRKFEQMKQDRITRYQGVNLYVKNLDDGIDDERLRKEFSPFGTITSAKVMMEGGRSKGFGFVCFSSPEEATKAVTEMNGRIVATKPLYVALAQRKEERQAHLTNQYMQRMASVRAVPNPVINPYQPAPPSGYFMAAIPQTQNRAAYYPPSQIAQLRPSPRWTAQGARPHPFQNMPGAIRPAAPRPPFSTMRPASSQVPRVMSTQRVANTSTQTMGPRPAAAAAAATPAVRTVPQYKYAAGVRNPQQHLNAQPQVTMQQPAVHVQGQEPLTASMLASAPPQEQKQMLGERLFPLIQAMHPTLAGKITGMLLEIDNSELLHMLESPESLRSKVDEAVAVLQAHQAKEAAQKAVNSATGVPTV
# [8] = target: T5, Polyadenylate-binding protein 1; assay: MLLE binding blockers, Cy5 peptide tracer – biochemical, fluorescence polarization, Cy5-PAM2 peptide, secondary, miRNA deadenylation inhibitor project, dose response (AID 602260); type: functional; settings: read-out: IC50_Mean
# [9] = HIV-1 AD8 envelope cell-cell fusion blockers – cherry-pick, dose response (AID 652062); type: functional, cell-based;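 further: luciferase signal from cell-cell fusion driven by HIV-1 clade B AD8 Env; potency is for inhibitors of fusion seen as a drop in luminescence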
# [10] = test system: Streptococcus sp. 'group A'; assay: Streptococcus pyogenes SK(-)GAS viability under kanamycin – luminescence, BacTiterGlo, confirmation, counter-screen for streptokinase expression inhibitor project, dose response (AID 1900); type: functional, organism-based
# Streptococcus = assay: GAS UMAA2166 growth inhibition – luminescence, BacTiterGlo, counter-screen for streptokinase expression inhibitor project, dose response (AID 1915); type: functional, organism-based;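 further: potency for reduction of bacterial viability or growth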
# Streptokinase A = target: T6, Streptokinase A (Streptococcus pyogenes serotype M1, UniProt P10520); assay: viability-normalized secreted streptokinase activity reduction – plasminogen activation absorbance, OD405, dose response (AID 1914); type: functional, Streptococcus pyogenes M1 GAS;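 further: secreted streptokinase activity via plasminogen activation per viability signal from cell pellet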
# T6 sequence (P10520 whole entry): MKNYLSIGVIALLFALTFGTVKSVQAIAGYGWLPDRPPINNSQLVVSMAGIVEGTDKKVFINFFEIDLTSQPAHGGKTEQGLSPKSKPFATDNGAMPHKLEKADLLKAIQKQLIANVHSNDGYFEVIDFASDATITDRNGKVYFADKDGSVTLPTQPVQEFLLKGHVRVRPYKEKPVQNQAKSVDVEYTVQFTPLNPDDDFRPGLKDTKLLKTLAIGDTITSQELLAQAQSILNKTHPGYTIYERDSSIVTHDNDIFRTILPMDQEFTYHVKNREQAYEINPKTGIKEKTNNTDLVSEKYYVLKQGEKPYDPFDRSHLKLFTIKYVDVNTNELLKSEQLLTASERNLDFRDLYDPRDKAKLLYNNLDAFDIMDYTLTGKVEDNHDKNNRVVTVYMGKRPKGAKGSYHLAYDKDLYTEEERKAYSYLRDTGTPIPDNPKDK
smiles,measurement,setting,value
O=C1C=C(c2ccc3[nH]ccc3c2)C[C@@H](c2ccc(Cl)cc2)C1,CC50,[1],> 40 µM (active)
CCCCCOc1ccc(NC2=CC(=O)CCC2)cc1,CC50,[1],> 40 µM (active)
COc1ccc(-n2c(C)nc3cc(C(=O)NCc4ccco4)ccc32)cc1,IC50,Protein skinhead-1,> 100 µM (inactive)
CC(=O)Cc1cc(O)c2ccccc2c1OC(=O)c1ccc(Br)cc1,EC50,[2],> 53 µM (inactive)
same,IC50,[3],> 47.1 µM (inactive)
same,AC50,INS1,14.9 µM (active)
COc1cccc(NC(=O)C(C)Oc2ccccc2)c1 (stereo not drawn),IC50,Protein skinhead-1,> 100 µM (inactive)
CCOC(=O)C1CCN(C(=O)COC(=O)c2cc([N+](=O)[O-])ccc2N2CCOCC2)CC1,IC50,Fatty acid synthase [4],4.15 µM (active)
same,IC50,Fatty acid synthase [5],7.1 µM (active)
COc1ccccc1CN(C)CC(=O)Nc1ccc(Cl)cc1F,IC50,[6],> 50 µM (not active)
O=C(CCc1ccccc1)NC1CCSC1=O (stereo not drawn),IC50,Protein skinhead-1,> 100 µM (inactive)
COc1ccccc1S(=O)(=O)N1CCn2cccc2C1C (stereo not drawn),EC50,[2],> 53 µM (inactive)
same,IC50,[3],> 47.1 µM (inactive)
CCN(CC)S(=O)(=O)c1ccc2c(c1)nc(SC(C)C(N)=O)n2-c1ccc(OC)cc1 (stereo not drawn),IC50,Protein skinhead-1,> 100 µM (inactive)
CCN(CC)C(=O)CSc1nnc2nnc3cc(C)ccc3n12,IC50,[7],49.8 µM (inactive)
same,IC50,[8],> 66 µM (inactive)
Cc1nc(NC(=S)NC(=O)c2ccco2)sc1C(=O)N(C)C,IC50,[7],> 66 µM (inactive)
same,IC50,[8],> 66 µM (inactive)
Clc1ccc(-c2nnc(-c3ccccc3)o2)c(Cl)c1,IC50,Protein skinhead-1,51.6 µM (inactive)
N#Cc1c(N)nc(SC2CCCCC2=O)c(C#N)c1-c1ccco1 (stereo not drawn),EC50,[2],> 53 µM (inactive)
same,IC50,[3],< 0.368 µM (active)
Cc1ccc(C(=O)NC(=S)Nc2ccc3[nH]c(O)nc3c2)c(C)c1,IC50,[7],> 66 µM (inactive)
same,IC50,[8],> 66 µM (inactive)
Cn1cccc1Cc1nnc(SCC(=O)N2CCN(c3ccccc3)CC2)n1-c1ccc(F)cc1,EC50,[2],> 53 µM (inactive)
same,IC50,[3],> 47.1 µM (inactive)
O=C(NCCc1nnc2ccc(NCc3ccc(Cl)cc3)nn12)c1ccccc1,IC50,[6],6.17 µM (not active)
CCc1ccc(S(=O)(=O)c2nnn3c2nc(N2CCOCC2)c2ccccc23)cc1,IC50,Fatty acid synthase [4],14.3 µM (active)
same,IC50,Fatty acid synthase [5],6.03 µM (active)
O=C(NC(=S)NCCO)c1cn(-c2ccccc2)nc1-c1ccccc1,IC50,[7],> 66 µM (inactive)
same,IC50,[8],> 66 µM (inactive)
O=S(=O)(Oc1ccccc1C(=S)N1CCOCC1)c1ccc(Cl)cc1,IC50,[7],> 66 µM (inactive)
same,IC50,[8],> 66 µM (inactive)
O=S(=O)(c1cccs1)N1CCN(Cc2nc(O)c3cc(Br)cc(Br)c3n2)CC1,IC50,Fatty acid synthase [4],12.5 µM (active)
same,IC50,Fatty acid synthase [5],9.03 µM (active)
Cn1nc(C(C)(C)C)cc1NC(=O)Nc1cc(Cl)cc(Cl)c1,CC50,[1],11.3 µM (active)
N#C/C(=C\c1cccn1-c1ccccc1)C(=O)NC1CCCCC1,EC50,[2],> 53 µM (inactive)
same,IC50,[3],> 47.1 µM (inactive)
O=C(/C=C/c1cc([N+](=O)[O-])ccc1OC(F)F)NCc1ccc(Cl)cc1,IC50,Fatty acid synthase [4],0.351 µM (active)
same,IC50,Fatty acid synthase [5],0.413 µM (active)
COc1ccc(NS(=O)(=O)c2ccc3c(c2)OCCO3)cc1OC,AC50,[9],7.24 µM (active)
COc1ccc(CNC(C)C2COc3ccccc3O2)c(OC)c1 (stereo not drawn),IC50,Protein skinhead-1,> 100 µM (inactive)
CC1=CC2=NC(=O)/C(=C\c3cccn3CCOc3cc(C)cc(C)c3)C(=N)N2O1,IC50,[6],0.668 µM (not active)
COc1ccc(C(=O)CSc2nc(C(C)(C)C)nc3ccccc23)cc1,IC50,[6],12.6 µM (not active)
N#Cc1ccc(CSc2ccc(S(=O)(=O)N3CCCC3)cn2)cc1,IC50,Fatty acid synthase [4],8.8 µM (active)
same,IC50,Fatty acid synthase [5],6.67 µM (active)
COc1ccc(N=C(S)NC(NC(=O)c2ccc(Cl)cc2Cl)C(Cl)(Cl)Cl)c([N+](=O)[O-])c1 (stereo not drawn),IC50,[7],> 66 µM (inactive)
same,EC50,[10],1.22 µM (active)
same,EC50,Streptococcus,> 150 µM (not active)
same,EC50,Streptokinase A,20.9 µM (active)
same,IC50,[8],> 66 µM (inactive)
Cc1c(OCC(=O)NCCN2CCOCC2)ccc2c3c(c(=O)oc12)CCC3,EC50,[2],> 53 µM (inactive)
same,IC50,[3],> 47.1 µM (inactive)
CCCn1nc(C(=O)Nc2cc(S(=O)(=O)Nc3ccc(OC)cc3)ccc2O)c2ccccc2c1=O,EC50,[2],> 53 µM (inactive)
same,IC50,[3],> 47.1 µM (inactive)
Cn1nc(C(=O)O)c(=O)n(C)c1=O,IC50,[7],> 66 µM (inactive)
same,IC50,[8],> 66 µM (inactive)
O=C(NCC(=O)N1CCOCC1)c1ccc(Cl)c(Cl)c1,IC50,Protein skinhead-1,> 100 µM (inactive)
Cc1nnc(NC(=O)CSc2nnc(Cc3ccccc3)n2-c2ccccc2)s1,EC50,[2],> 53 µM (inactive)
same,IC50,[3],> 47.1 µM (inactive)
Cc1ccc(-n2ccnc(SCC(=O)NC3CCCCC3)c2=O)cc1F,IC50,[7],> 66 µM (inactive)
same,IC50,[8],> 66 µM (inactive)
Cc1c(C)n(C)c2ccc(C(=O)NCCCN(C)C3CCCCC3)cc12,IC50,Protein skinhead-1,> 100 µM (inactive)
O=C(CC(NC(=O)OCc1ccccc1)C(=O)OCc1ccccc1)OCc1ccccc1 (stereo not drawn),EC50,[2],> 53 µM (inactive)
same,IC50,[3],> 47.1 µM (inactive)
CCCCCC(=O)OCc1ccc(C2=CC(=O)CC(C)(C)C2=O)cc1,IC50,Fatty acid synthase [4],7.22 µM (active)
same,IC50,Fatty acid synthase [5],6.78 µM (active)
COc1cccc(NC(=O)COc2c(F)c(F)c(C(F)(F)F)c(F)c2F)c1,IC50,Fatty acid synthase [4],12.2 µM (active)
same,IC50,Fatty acid synthase [5],10.5 µM (active)
COc1cc(/C=N/c2c(C)cc(C)cc2C)ccc1OC(C)=O,EC50,[2],> 53 µM (inactive)
same,IC50,[3],> 47.1 µM (inactive)
COCC(=O)Nc1ccc2c(c1)C(=O)N(C)C[C@@H](OC)[C@@H](C)CN(C)[C@H](C)CO2,AC50,[9],14.8 µM (active)
O=C(CN(c1ccc(Cl)cc1)S(=O)(=O)c1ccccc1)N/N=C/c1ccco1,IC50,Fatty acid synthase [4],10.8 µM (active)
same,IC50,Fatty acid synthase [5],6.94 µM (active)
